In US20260008793A1, “IONIZABLE CATIONIC LIPIDS INCORPORATING SILICON” (ALDEXCHEM KFT., priority 2022, published 2026):

Columns and labels:
[1] = LNP size, PDI and zeta potential by Dynamic Light Scattering (Method A); type: physicochemical; details: LNP formulated by Method A; for Zeta potential (mV): 1xPBS pH 7.4; for PDI / Size (nm): DLS; for Size (nm): Luciferase-mRNA loaded
Experimental: (§1) The synthesized lipids were tested in term of in vitro transfection efficacy and toxicity on HeLa cells. In order to perform the mentioned biological tests, appropriate LNPs had to be formulated from the synthesized lipids. The formulation technique was different in Method A and B. The particle size, PDI and zeta potential of resulting LNPs were determined by means of Dynamic Light Scattering technique (DLS). Prior to biological testing the encapsulation efficiency (EE) of the loaded LNPs was determined by using RiboGreen RNA assay. In case of Method A Luciferase-mRNA while in case of Method B GFP-mRNA was transfected into the cells. In parallel with the transfection experiments, toxicity of the investigated LNPs was determined, in case of Method A resazurin assay while in case of Method B MTT assay was used. In the case of some lipids, the apparent pKa in LNPs was determined by using TNS titration based on the method described: Angew Chem Int Ed Engl. 2012, 51 (34), 8529-8533, doi: 10.1002/anie.201203263).
• 1. If needed, prepare stock solutions by solving known amounts of lipid powder into an appropriate solvent. The recommended solvent is Ethanol and the recommended concentration is typically in the range 10-50 mM. Higher concentrations are preferred to allow flexibility on mRNA-LNP concentration. • 2. Remove the lipid stock solutions from the −20° C. freezer. For long-term storage, −80° C. is used. • 3. Check the vials for precipitation, DOPE (CAS #4004-05-1) (20 mM) and DSPE-PEG (CAS #474922-26-4) (5 mM) may need a 5-30 minute incubation step at 37° C. with intermittent vortexing to resuspend all contents. […] As a last resort, lipids may be heated to 50° C. to resuspend, time should be kept as short as possible to prevent oxidation or other modifying or degradative processes. • 4. Mix the lipids by vortexing for 2 minutes. • 5. […] Cooling the solution prevent excessive evaporation of ethanol or similar solvents upon opening. • 6. Meanwhile, thaw the RNA samples, including the latest SecNLuc control, by inserting the frozen tube in a room temperature aluminium block. • 7. Prepare for each LNP-formulation with identical mRNA component, an RNA master mix according to Table 1 below in a fresh tube. Use of a master mix allows more precise comparison of lipid formulations relative to each other. Split the master mix over a number of fresh tubes equal to the number of samples+controls. Each tube contains 375 μl of mRNA in 10 mM Citrate pH 4.0. • 8. Prepare for each LNP formulation with identical lipid composition a Lipid master mix according to Table 1 below in a fresh tube, exclude the lipid of interest. Use of a master mix allows more precise comparison of the novel ionizable lipid relative to each other. Split the master mix over a number of fresh tubes equal to the number of samples+controls. Each tube contains 65.5 μl of lipid master mix. • 9. Add the ionizable lipid of interest to the equally divide lipid master mix. Mix well by pipetting up and down. Label the tube according to the ionizable lipid used. • 10. Power on the ‘L 1 formulation machine’ (L 1 FM) and allow it to do a calibration of motor positions.
• 18. Fill a fresh syringe (C) through a blunt 18 G stainless steel needle with the previously prepared RNA mixture of step 6. The volume should be approximately […] of total formulation volume+25 μl (dead-volume). Make sure to remove all air bubbles by tapping. • 19. Fill a fresh syringe (D) through a blunt 18 G stainless steel needle with the Lipid master mix. The volume should be approximately 35% of total formulation volume+25 μl (dead-volume). Again, Make sure to remove all bubbles. • 20. Attach the syringes in the correct orientation, syringe A on the left and syringe B on the right • 21. Load the ‘Receiving station’ with appropriate sized collection containers (2 ml Eppendorf tubes). • 22. Press the microfluidic chip to the back of the machine with your thumb and hold, press the ‘Button 1’ (40 g). […]

HeLa cells = assay: Transfection efficiency with Luciferase-mRNA, Nano-Glo assay (Method A); type: cell-based; details: 100 ng Luciferase (SecNLuc) mRNA, 24 h, luminescence
Experimental: as §1
• 1. Prepare mRNA solution by adding 100 ng mRNA (SecNLuc, #P009024, RiboPro) to 5 μl Opti-MEM • a. multiply by number of wells, include different concentrations and add 10% extra • b. a standard set-up we use is 100 ng-50 ng-10 ng mRNA/well in triplicate, which would need 528 ng mRNA (includes 10% extra)
• 2. (If applicable) Prepare different concentrations in Opti-MEM (for instance 100/50/10 ng). • 3. Add 10 μl to each well and mix carefully by pipetting. • 4. Mix by swirling the plate horizontally at modest speed. Reverse in direction 3 times. • 5. Incubate for 24 hours (incubator).
This protocol is applied to measure luciferase activity for secreted NanoLuc and is based on the protocol by Promega (Nano-Glo® Luciferase Assay System #N1110-1150). The protocol is designed for a 384-wells plate, but volumes can be changed accordingly for other plates.
• 1. Plate cells (HeLa) in 96-well plate, grow until 80% confluent and transfect with SecNanoLuc mRNA and incubate for the desired period (24 h). • 2. After incubation, the translated protein is accumulated in the medium. Transfer medium to a new plate or tubes • 3. Transfer 12 μl of each sample to a black-walled, clear-bottom 384-well plate • a. Black-walled plates are important to prevent shine-through of luminescence from other wells; alternatively, multiple wells between samples can be left empty • 4. Set-up plate reader • 5. Prepare the desired amount of Nano-Glo® Luciferase Assay Reagent by combining one volume of Nano-Glo® Luciferase Assay Substrate with 50 volumes of Nano-Glo® Luciferase Assay Buffer • a. composition: 100 mM MES pH 6; 1 mM EDTA; 0.5% NP-50; 150 mM KCl; 1 mM DTT; 35 mM Thiourea • b. Briefly spin tubes containing substrate in a microcentrifuge before use • 6. Add and mix (by pipetting) 12 μl Nano-Glo® Luciferase Assay Reagent per well • a. Wait approximately 3 minutes before measuring luminescence. […] Measure luminescence in plate reader using standard protocol luciferase (this includes mixing sample in plate reader)

SMILES | Zeta potential (mV) [1] | PDI [1] | Size (nm) [1] | Transfection* (Method A = 100 ng mRNA) (HeLa cells)
CCCCCCCCC(CCCCCC)C(=O)OCCCCCCN(CCCCO)CCCCCCOC(CCCCCCC)O[Si](C)(C)CCCCCCCC (stereo not shown) [Example 129, 15-heptyl-7-(4-hydroxybutyl)-17,17-dimethyl-14,16-dioxa-7-aza-17-silapentacosyl 2-hexyldecanoate] | −12.48 mV | 0.054 | 132.9 nm | 962783
CCCCCCCCOC(CCCCCN(CCCCO)CCCCCCOC(=O)C(CCCCCC)CCCCCCCC)O[Si](C)(C)OCCCCCCCC (stereo not shown) [Example 130, 7-(4-hydroxybutyl)-15,15-dimethyl-13-(octyloxy)-14,16-dioxa-7-aza-15-silatetracosyl 2-hexyldecanoate] | −11.85 mV | 0.418 | 587.6 nm | 428552
CCCCCCCCO[Si](C)(C)OC(CCCCCCC)OCCCCCCN(CCCCO)CCCCCCOC(=O)C(CCCCCC)CCCCCCCC (stereo not shown) [Example 131, 15-heptyl-7-(4-hydroxybutyl)-17,17-dimethyl-14,16,18-trioxa-7-aza-17-silahexacosyl 2-hexyldecanoate] | −16.95 mV | 0.219 | 244.2 nm | 951145
CCCCCCCCC(CCCCCC)C(=O)OCCCCCCN(CCCCO)CCCCCCOC(CCCCCCC)O[Si](C)(C)O[Si](C)(C)CCCCCCCC (stereo not shown) [Example 133, 15-heptyl-7-(4-hydroxybutyl)-17,17,19,19-tetramethyl-14,16,18-trioxa-7-aza-17,19-disilaheptacosyl 2-hexyldecanoate] | −10.68 mV | 0.039 | 135.7 nm | 73879.5
CCCCCCCCOC(CCCCCN(CCCCO)CCCCCCOC(=O)C(CCCCCC)CCCCCCCC)O[Si](C)(C)O[Si](C)(C)OCCCCCCCC (stereo not shown) [Example 134, 6-((4-hydroxybutyl)(6-(octyloxy)-6-((1,1,3,3-tetramethyl-3-(octyloxy)disiloxaneyl)oxy)hexyl)amino)hexyl 2-hexyldecanoate] | −11.99 mV | 0.006 | 145.8 nm | 398528
CCCCCCCCO[Si](C)(C)O[Si](C)(C)OC(CCCCCCC)OCCCCCCN(CCCCO)CCCCCCOC(=O)C(CCCCCC)CCCCCCCC (stereo not shown) [Example 135, 15-heptyl-7-(4-hydroxybutyl)-17,17,19,19-tetramethyl-14,16,18,20-tetraoxa-7-aza-17,19-disilaoctacosyl 2-hexyldecanoate] | −16.11 mV | 0.158 | 271.2 nm | 538348
CCCCCCCCOC(CCCCCN(CCCCO)CCCCCCOC(=O)C(CCCCCC)CCCCCCCC)O[Si](C)(C)OCC(CCCCCC)CCCCCCCC (stereo not shown) [Example 136, 18-hexyl-7-(4-hydroxybutyl)-15,15-dimethyl-13-(octyloxy)-14,16-dioxa-7-aza-15-silahexacosyl 2-hexyldecanoate] | −13.28 mV | 0.259 | 305.2 nm | 61666
CCCCCCCCC(CCCCCC)CO[Si](C)(C)OC(CCCCCCC)OCCCCCCN(CCCCO)CCCCCCOC(=O)C(CCCCCC)CCCCCCCC (stereo not shown) [Example 137, 15-heptyl-20-hexyl-7-(4-hydroxybutyl)-17,17-dimethyl-14,16,18-trioxa-7-aza-17-silaoctacosyl 2-hexyldecanoate] | −16.61 mV | 0.096 | 169.2 nm | 1713925
CCCCCCCCOC(CCCCCCC)O[Si](C)(C)CCCCCCN(CCCCO)CCCCCCOC(=O)C(CCCCCC)CCCCCCCC (stereo not shown) [Example 138, 16-heptyl-7-(4-hydroxybutyl)-14,14-dimethyl-15,17-dioxa-7-aza-14-silapentacosyl 2-hexyldecanoate] | −16.19 mV | 0.104 | 211.7 nm | 1216014
CCCCCCCCOC(CCCCCCC)O[Si](C)(C)OCCCCCCN(CCCCO)CCCCCCOC(=O)C(CCCCCC)CCCCCCCC (stereo not shown) [Example 139, 17-heptyl-7-(4-hydroxybutyl)-15,15-dimethyl-14,16,18-trioxa-7-aza-15-silahexacosyl 2-hexyldecanoate] | −12.3 mV | 0.14 | 137.4 nm | 11829351
CCCCCCCCC(CCCCCC)C(=O)OCCCCCCN(CCCCO)CCCCCCO[Si](C)(C)OC(CCCCCCC)OCCCCCCC (stereo not shown) [Example 140, 17-heptyl-7-(4-hydroxybutyl)-15,15-dimethyl-14,16,18-trioxa-7-aza-15-silapentacosyl 2-hexyldecanoate] | −4.5 mV | 0.05 | 130.8 nm | 6292223
CCCCCCCCCOC(CCCCCCC)O[Si](C)(C)OCCCCCCN(CCCCO)CCCCCCOC(=O)C(CCCCCC)CCCCCCCC (stereo not shown) [Example 141, 17-heptyl-7-(4-hydroxybutyl)-15,15-dimethyl-14,16,18-trioxa-7-aza-15-silaheptacosyl 2-hexyldecanoate] | −10.6 mV | 0.11 | 129.5 nm | 4651434
CCCCCCCCOC(CCCCCC)O[Si](C)(C)OCCCCCCN(CCCCO)CCCCCCOC(=O)C(CCCCCC)CCCCCCCC (stereo not shown) [Example 142, 17-hexyl-7-(4-hydroxybutyl)-15,15-dimethyl-14,16,18-trioxa-7-aza-15-silahexacosyl 2-hexyldecanoate] | −12.8 mV | 0.06 | 125.1 nm | 5491290
